Assay results as given in patent US20250361268A1, “NOVEL ANTI-INFLAMMATORY PEPTIDE AND USE THEREOF” (NOVACELL TECHNOLOGY INC., priority 2022, published 2025).
Peptide text beside a SMILES is read from it.

Columns and labels:
FPR2 = target: T1, FPR2 (Homo sapiens, UniProt P25090); assay: Change in calcium activity by peptide (Fura-2) in RBL cells overexpressing FPR2; assay type: cell-based; details: calcium activity (Fura-2), graded per Table 3, read-out: EC50 for [Ca^2+] FPR2
T1 construct: expressed in transfected cells; host or cells: RBL cells (RBL-FPR2)
T1 sequence (P25090 1-351): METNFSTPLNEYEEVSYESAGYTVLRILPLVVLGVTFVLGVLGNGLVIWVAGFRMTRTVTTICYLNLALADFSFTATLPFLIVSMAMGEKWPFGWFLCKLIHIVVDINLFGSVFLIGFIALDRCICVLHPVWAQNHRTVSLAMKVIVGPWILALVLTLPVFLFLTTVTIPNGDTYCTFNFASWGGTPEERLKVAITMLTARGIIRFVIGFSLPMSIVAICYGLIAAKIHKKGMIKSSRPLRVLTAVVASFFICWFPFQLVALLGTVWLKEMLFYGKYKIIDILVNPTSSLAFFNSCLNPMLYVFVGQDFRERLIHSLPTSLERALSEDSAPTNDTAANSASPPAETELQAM
In short: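 Rat basophilic leukemia cells overexpressing FPR2 loaded with Fura-2 (37 °C 1 h, then RT 30 min dark); peptides (0.5 mM stocks in water or 50% DMSO) diluted in HBSS + 20 mM HEPES and added on a plate reader, intracellular Ca2+ change recorded.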

FPR1 = target: T2, FPR1 (Homo sapiens, UniProt P21462); assay: Change in calcium activity by peptide, FPR1 activation effect; assay type: cell-based; details: calcium activity (Fura-2), graded per Table 3, read-out: EC50 for [Ca^2+] FPR1
T2 sequence (P21462 1-350): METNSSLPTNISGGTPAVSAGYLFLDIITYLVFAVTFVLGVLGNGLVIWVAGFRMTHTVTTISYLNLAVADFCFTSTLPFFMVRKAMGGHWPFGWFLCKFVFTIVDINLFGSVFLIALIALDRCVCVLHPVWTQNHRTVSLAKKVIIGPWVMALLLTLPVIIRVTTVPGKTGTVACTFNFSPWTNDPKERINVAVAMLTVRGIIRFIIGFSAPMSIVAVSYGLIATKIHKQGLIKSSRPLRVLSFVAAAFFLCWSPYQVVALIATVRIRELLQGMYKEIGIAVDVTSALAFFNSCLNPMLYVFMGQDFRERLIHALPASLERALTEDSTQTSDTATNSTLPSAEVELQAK
In short: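 Cells plated at 3×10^5 per well the day before were loaded with Fura-2 for 1 h at 37 °C, then kept 30 min in the dark at room temperature. Peptide-evoked calcium changes were recorded on a FlexStation 3.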

RAW264.7 cell line = assay: Cytokine inhibition ability: LPS-induced cytokine gene expression in RAW264.7 macrophages; assay type: cell-based, mouse; details: grade of reduction rate of gene expression, peptide 100 nM, LPS 200 ng/mL, 6 hours
Procedure: The present inventors observed the cytokine inhibition ability of the immunomodulatory peptide candidates prepared according to one example of the present invention. Specifically, to confirm whether the peptides reduce inflammatory responses in cells, changes in cytokine gene expression in cells upon inflammation was measured.
The present inventors used a RAW264.7 cell line, that is, mouse macrophages, and used lipopolysaccharide (LPS; Sigma-Aldrich, #L2630), which is the main component of a gram-negative bacterial cell wall, as a material causing an inflammatory response. A peptide that had been dissolved in water at 100 μM was prepared.
In the present experiment, the cells were cultured in a DMEM (Lonza, #BE12-604F) containing 10% FBS and 1% penicillin-streptomycin under conditions of 37° C. and 5% CO2.
The cells were plated in a 24-well plate (Costar, #3603) at a density of 2.5×10^5 cells/well. After 24 hours, the prepared cells were treated with the peptide at 100 nM. After incubation at 37° C. for 30 minutes, to induce inflammation, 200 ng/mL of LPS was treated. After incubation at 37° C. for 6 hours, the cells in a medium-free state were treated with TRIzol™ (Invitrogen, #15596018) to lyse the cells. Through the given experimental method, RNA was obtained, cDNA was produced using a reverse transcriptase (Promega, #M1705). Afterward, a cytokine expression level was measured using SYBR Green (Enzynomics, RT530) and mouse primers of each inflammatory cytokine gene (TNFα, IL-6, and IL-1β).

Compound	EC50 (FPR2)	EC50 (FPR1)	Cytokine inhibition ability IL-1β (RAW264.7 cell line)	Cytokine inhibition ability IL-6 (RAW264.7 cell line)	Cytokine inhibition ability TNFα (RAW264.7 cell line)
CCCCCCCC(=O)N[C@@H](CCCCN)C(=O)N[C@@H](CCSC)C(=O)N[C@@H](CCCCN)C(=O)N[C@@H](Cc1ccc(O)cc1)C(=O)N[C@@H](CCCCN)C(=O)N1CCC[C@H]1C(=O)N[C@H](CCSC)C(N)=O [Peptide 69] (HELM PEPTIDE1{[CCCCCCCC(=O)[*:2]].K.M.K.Y.K.P.[dM].[am]}$$$$V2.0)	0.011 to 0.1 µM	> 10 µM	A (81%-100%)	C (41%-60%)	B (61%-80%)
CCCC(=O)N[C@@H](CCSC)C(=O)N[C@@H](CCCCN)C(=O)N[C@@H](Cc1ccc(O)cc1)C(=O)N[C@@H](CCCCN)C(=O)N1CCC[C@H]1C(=O)N[C@H](CCSC)C(N)=O [Peptide 72] (HELM PEPTIDE1{[CCCC(=O)[*:2]].M.K.Y.K.P.[dM].[am]}$$$$V2.0)	0.011 to 0.1 µM	> 10 µM	B (61%-80%)	D (21%-40%)	B (61%-80%)
CCCCCCCC(=O)N[C@@H](CCSC)C(=O)N[C@@H](CCCCN)C(=O)N[C@@H](Cc1ccc(O)cc1)C(=O)N[C@@H](Cc1c[nH]c2ccccc12)C(=O)N1CCC[C@H]1C(=O)N[C@H](CCSC)C(N)=O [Peptide 116] (HELM PEPTIDE1{[CCCCCCCC(=O)[*:2]].M.K.Y.W.P.[dM].[am]}$$$$V2.0)	0.011 to 0.1 µM	1 to 10 µM	B (61%-80%)	B (61%-80%)	B (61%-80%)
CSCC[C@H](NC(=O)[C@H](CCCNC(=N)N)NC(C)=O)C(=O)N[C@@H](CCCNC(=N)N)C(=O)N[C@@H](Cc1ccc(O)cc1)C(=O)N[C@@H](Cc1c[nH]c2ccccc12)C(=O)N[C@@H](Cc1ccc(O)cc1)C(=O)N[C@H](CCSC)C(N)=O [Peptide 82] (HELM PEPTIDE1{[ac].R.M.R.Y.W.Y.[dM].[am]}$$$$V2.0)	< 0.01 µM	> 10 µM	B (61%-80%)	D (21%-40%)	A (81%-100%)
CSCC[C@H](NC(=O)[C@H](CCCNC(=N)N)NC(C)=O)C(=O)N[C@@H](CCCNC(=N)N)C(=O)N[C@@H](Cc1ccc(O)cc1)C(=O)N[C@@H](CCCCN)C(=O)N[C@@H](Cc1ccc(O)cc1)C(=O)N[C@H](CCSC)C(N)=O [Peptide 39] (HELM PEPTIDE1{[ac].R.M.R.Y.K.Y.[dM].[am]}$$$$V2.0)	0.011 to 0.1 µM	> 10 µM	B (61%-80%)	D (21%-40%)	B (61%-80%)
CSCC[C@H](NC(C)=O)C(=O)N[C@@H](CCCCN)C(=O)N[C@@H](Cc1ccc(O)cc1)C(=O)N[C@@H](Cc1c[nH]c2ccccc12)C(=O)N1CCC[C@H]1C(=O)N[C@H](CCSC)C(N)=O [Peptide 114] (HELM PEPTIDE1{[ac].M.K.Y.W.P.[dM].[am]}$$$$V2.0)	< 0.01 µM	1 to 10 µM	B (61%-80%)	E (0%-20%)	A (81%-100%)
CSCC[C@H](NC(=O)[C@@H](N)CCCNC(=N)N)C(=O)N[C@@H](CCCNC(=N)N)C(=O)N[C@@H](Cc1ccc(O)cc1)C(=O)N[C@@H](CCCCN)C(=O)N[C@@H](Cc1ccc(O)cc1)C(=O)N[C@H](CCSC)C(N)=O [Peptide 38] (HELM PEPTIDE1{R.M.R.Y.K.Y.[dM].[am]}$$$$V2.0)	< 0.01 µM	> 10 µM	A (81%-100%)	C (41%-60%)	B (61%-80%)
CSCC[C@H](N)C(=O)N[C@@H](CCCCN)C(=O)N[C@@H](Cc1ccc(O)cc1)C(=O)N[C@@H](CCCCN)C(=O)N[C@H](C(=O)N[C@H](CCSC)C(N)=O)C(C)C [Peptide 17] (HELM PEPTIDE1{M.K.Y.K.V.[dM].[am]}$$$$V2.0)	< 0.01 µM	> 10 µM	B (61%-80%)	D (21%-40%)	B (61%-80%)
